Data from US20110015221A1, “PHARMACEUTICAL COMPOSITION OF VINFLUNINE WHICH IS INTENDED FOR PARENTERAL ADMINISTRATION PREPARATION METHOD THEREOF AND USE OF SAME” (PIERRE FABRE MEDICAMENT, priority 2003, published 2011).
Converted amounts (≈) assume the structure as drawn.

Legend:
[1] = Stability at 25° C.: total amount of vinflunine-related impurities, pulverulent form vs aqueous solution; assay type: physicochemical
Text: The stability is monitored by observing the changes in the total amount of vinflunine-related impurities present.

Solubility = conditions: water

| Compound | increase of the total amount of vinflunine-related impurities ([1]; after storage for 6 months at 25° C.) [%] | % impurity relative to 100% of active principle (total vinflunine-related impurities) ([1]; t0) [%] | % impurity relative to 100% of active principle (total vinflunine-related impurities) ([1]; t3 months, storage at 25° C.) [%] | % impurity relative to 100% of active principle (total vinflunine-related impurities) ([1]; t6 months, storage at 25° C.) [%] | solubility (Solubility) [mg/mL] |
| --- | --- | --- | --- | --- | --- |
| CC[C@]12C=CCN3CC[C@@]4(c5cc([C@@]6(C(=O)OC)CC7CC(C(C)(F)F)CN(Cc8c6[nH]c6ccccc86)C7)c(OC)cc5N(C)[C@H]4C(O)(C(=O)OC)[C@@H]1OC(C)=O)[C@@H]32 (stereo partly drawn) [batch 503, 20′,20′-difluoro-3′,4′-dihyrovinorelbine L(+)-tartrate] | 197 | 1.17 | 2.75 | 3.48 |  |
| CCC1=C[C@@H]2CN(C1)Cc1c([nH]c3ccccc13)[C@@](C(=O)OC)(c1cc3c(cc1OC)N(C)[C@H]1[C@@](O)(C(=O)OC)[C@H](OC(C)=O)[C@]4(CC)C=CCN5CC[C@]31[C@@H]54)C2 [vinorelbine] |  |  |  |  | 1000 (≈ 1280 mM) |
| CC[C@]12C=CCN3CC[C@@]4(c5cc([C@@]6(C(=O)OC)CC7CC(C(C)(F)F)CN(Cc8c6[nH]c6ccccc86)C7)c(OC)cc5N(C)[C@H]4C(O)(C(=O)OC)[C@@H]1OC(C)=O)[C@@H]32 (stereo partly drawn) [vinflunine, 20′,20′-difluoro-3′,4′-dihydrovinorelbine] |  |  |  |  | 290 to 330 (≈ 355 to 404 mM) |
